{
  "source": "patent US9090701B2",
  "about": "“Methods of detecting oxidized calcium/calmodulin dependent protein kinase II” (University of Iowa Research Foundation, priority 2008, dated 2015)",
  "key": {"oxCaMKII": {"tested_on": "oxCaMKII", "test": "Western blot of blood samples for oxidized CaMKII", "assay_type": "in vivo, mice", "settings": "WT and MsrA−/− mice, sacrificed 6 hours later, N=1 per group", "text": "In order to test whether the anti-oxCaMKII antiserum was suitable for detecting increased CaMKII oxidation in blood under disease conditions associated with enhanced oxidative stress, validated mouse models were utilized. […] (See FIG. 15). Western blot of blood samples and ImageJ analysis were used to quantify total and oxidized CaMKII. (See FIG. 15). […] Mice were exposed to cancer cells and treated with either saline or 2DG. Those mice that tailed to develop tumors after 60 days were labeled as controls. (See FIG. 16). Western blot of blood samples and ImageJ analysis were used to quantify total and oxidized CaMKII. (See FIG. 16). […] (See FIG. 16). Mice were divided into four groups based on the presence or absence of cancer and whether or not they received treatment. Western blot of blood samples and ImageJ analysis were used to quantify total and oxidized CaMKII. (See FIG. 18). Both cancer and varied treatments increase blood oxCaMKII in an additive manner."}, "cardiomyocytes [1]": {"tested_on": "cardiomyocytes", "test": "Isolated cardiomyocyte TUNEL staining", "assay_type": "cell-based, mouse", "settings": "100 nM, 24 hours", "procedure": "Myocyte isolations from neonatal mouse or rat pups were modified from previously described methods (Mohler e.g., 2007). To generate the primary cardiomyocyte cultures, hearts were dissected from P1 animals and placed in 1 mL of Ham's F-10. Atrial tissue was removed and the ventricular chambers were rinsed to remove any remaining blood. Hearts were transferred into 1.5 mL of 0.05% Trypsin, 200 μM EDTA in Ham's F-10 medium (Mediatech). Hearts were minced into approximately 20 small pieces using forceps and small scissors and incubated in the Trypsin/EDTA medium at 37° C. Following 15 min, the heart pieces were mixed by a Pasteur pipette and incubated for an additional 15 min. A mixture of 200 μL of soybean trypsin inhibitor (2 mg/mL; Worthington) and 200 μL of collagenase (0.2 mg/mL; 1980 units/mg; Sigma) was incubated with the cells for 35-50 min at 37° C. The cell suspension was pelleted, resuspended in “Complete Medium” (40% DMEM, 40% Ham's F-10, 20% FCS), and plated on plastic dishes. Following five hours, the non-adhered cells (cardiomyocytes) were aspirated from the plate, pelleted, resuspended in Complete Medium, and plated on Mattek tissue culture plates (fibronectin-coated; Roche). Cardiomyocytes were washed with Ham's F-10 and Medium was replaced with “Defined Medium” to prevent the growth of fibroblasts. 100× Defined Medium consists of 100 μg/mL insulin, 500 μg/mL transferrin, 100 nM LiCl, 100 nM NaSeO4, and 10 nM thyroxine. To ensure that pure populations of cardiomyocytes were obtained, cultures were immunolabeled with alpha-actinin Ig (cardiomyocyte-specific marker). Only cultures with >90% cardiomyocytes were used in experiments. (See FIG. 12.) Lentiviral treatments (shRNA, rescue constructs) and apoptosis inducing agents (Iso, AngII) were used for 24 hours. Cells were fixed in 4% paraformaldehyde, permeabilized in 0.1% Triton X-100 and sodium citrate, and stained using In Situ cell death detection kits, TMR Red (Roche). TUNEL stain assays were interpreted as previously described (Yang e.g., 2006). Nuclei were co-stained with DAPI. Investigators were blinded to the genetic identity and treatment of the mice in all studies.\nCardiomyocytes from mice that express an inhibitory peptide against CaMKII (AC3-I, Zhang e.g., 2005) were treated with 100 nM AngII for 24 hours in parallel with isolated cardiomyocytes from WT and p47^−/− mice. […] Activity assays for caspase-3, a downstream target enzyme in the CaMKII apoptotic signaling pathway in heart, recapitulated the results from the TUNEL assay (FIG. 7A)."}, "cardiomyocytes [2]": {"tested_on": "cardiomyocytes", "test": "Intracellular calcium concentration (Fura-2 imaging)", "assay_type": "cell-based, mouse", "settings": "compared to Iso, cardiomyocytes from WT and p47−/− mice, 100 nM", "procedure": "Intracellular calcium concentration was assessed by Fura-2 fluorescence ratio imaging using a microscopic digital imaging system (Photon Technology International), as described previously (Sharma e.g., 1995). Briefly, cultured primary cardiac myocytes were loaded with the Ca^2+-specific dye Fura-2 by incubating with 1 μM Fura-2AM (Molecular Probes) at 37° C. for 30 minutes. [Ca^2+]t values over the entire cell were calculated from the 340/380-nm ratio images of Fura-2 fluorescence captured before, during and after Iso (100 nM) or AngII (100 nM) stimulation.\nIn order to validate the connection between AngII and ROS in this experimental model, isolated cardiomyocytes from WT and p47^−/− mice were treated with 100 nM AngII and monitored production of ROS by Imaging DHE, a fluorescent reporter for superoxide and hydrogen peroxide (FIG. 7C). Wild-type cardiomyocytes were incubated with fura-2 AM, a cell-permeant calcium indicator to observe changes in intracellular Ca^2+ ([Ca^2+]i)."}},
  "data": [
    {"substance": "angiotensin II (DRVYIHPF; Angiotensin-2; UniProt P01019 25-32, looked up) [AngII, oxidant stimulating agent in cardiac tissue]", "values": [
      {"measurement": "Oxidized CaMKII in blood", "setting": "oxCaMKII", "result": "increased oxidized CaMKII"},
      {"measurement": "Percent of TUNEL positive nuclei", "setting": "cardiomyocytes [1]; WT cells", "result": "significant increase"},
      {"measurement": "Percent of TUNEL positive nuclei", "setting": "cardiomyocytes [1]; p47−/− or AC3-I cardiomyocytes", "result": "no significant effect"},
      {"measurement": "Increases in [Ca2+]i", "setting": "cardiomyocytes [2]", "result": "significantly less"}
    ]}
  ]
}
